Here are results for 22 compounds from patent publication US20220153732A1, “PROTEIN SECRETION INHIBITORS” (KEZAR LIFE SCIENCES, priority 2019, published 2022).

A value given as a limit tells only on which side of the number the result lay.

Common to all, as to assay type: cell-based
The test system of assay [1] is PD1-ss+10aa/Gaussia Luciferase. In words: Dox-Induced PD1-ss-Gluc Assay. To be noted: 24 hr doxycycline induction, 293FRT/TO cells, Gaussia luciferase signal; read-out: 24 hr Dox Inducible PD1ssGluc 293FRT/TO: Mean IC50. The method, boiled down:
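Stable cell line carrying PD1-ss+10aa/Gaussia luciferase cDNA under T-REx (doxycycline-inducible) control, plated the day before assay. Compound dilutions in DMSO/media containing doxycycline added and incubated at 37° C, 5% CO2. Undefined stereocentres: data refer to stereoisomer mixtures.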

The subject of assay [2] is human multiple myeloma cell line NCI-H929. The experiment in a line: H929 Cell Viability Assay. Particulars: 48 hr, NCI-H929 cells, Celltiter-Glo, read-out: 48 hr H929 Viability Celltiter-Glo: Mean EC50. How it is done:
Plates were incubated at 37° C., 5% CO2 for 48 hours. After 48 hours, Celltiter-Glo® (Promega) was added to each well and luciferase signal was quantified using Tecan Infinite M1000 Pro for cell viability determination.
For chemical structures that include one or more stereoisomers, but are illustrated without indicating stereochemistry, the assay data refers to a mixture of stereoisomers.

In assay [3] the test system is HER3-ss+4aa/Gaussia Luciferase. In words: Dox-Induced Her3-ss-Gluc Assay. Particulars: 24 hr doxycycline induction, 293FRT/TO cells, Gaussia luciferase signal; read-out: 24 hr Dox Inducible Her3(ss + 4)Gluc 293FRT/TO: Mean IC50. An outline of the steps:
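Stable T-REx cell line carrying a doxycycline-regulated HER3-ss+4aa/Gaussia luciferase insert, plated the day before assay. Compound dilutions in DMSO/media with doxycycline added, then incubated at 37° C., 5% CO2. Stereoisomer mixtures tested where stereochemistry is not drawn.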

For assay [4], the system named is human multiple myeloma cell line U266B1. In words: U266 Cell Viability Assay. To be noted: U-266, 48 hr, U266B1 cells, Celltiter-Glo, read-out: 48 hr U266 Viability Celltiter-Glo: Mean EC50. The method, boiled down:
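U266B1 myeloma cells treated with compound dilutions in DMSO/media for 48 h at 37 °C, 5% CO2. Viability read by CellTiter-Glo luminescence. Stereochemically undefined structures were tested as stereoisomer mixtures.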

The subject of assay [5] is TNFα-FL/Gaussia Luciferase. The experiment in a line: Dox Induced TNFα-FL-Gluc Assay. To be noted: 24 hr doxycycline induction, 293FRT/TO cells, Gaussia luciferase signal; read-out: 24 hr Dox Inducible TNFaFLGluc 293FRT/TO: Mean IC50. An outline of the steps:
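A stable T-REx cell line carrying doxycycline-inducible TNFα-FL/Gaussia luciferase was plated the day before assay. Compound dilutions in DMSO/media containing doxycycline were then added and incubated at 37° C, 5% CO2.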

Assay [6] concerns IL-2-FL/Gaussia Luciferase. The experiment in a line: Dox Induced IL2-FL-Gluc Assay. Particulars: 24 hr doxycycline induction, 293FRT/TO cells, Gaussia luciferase signal; read-out: 24 hr Dox Inducible IL2FLGIuc 293FRT/TO: Mean IC50. The method, boiled down: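 Stable T-REx cell line expressing doxycycline-inducible IL-2-FL/Gaussia luciferase cDNA, plated the day before assay. Compound dilutions in DMSO/media containing doxycycline added and incubated at 37° C., 5% CO2. Unspecified stereochemistry means data refer to a stereoisomer mixture.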

Turning to `CC(C)OC(C)(C)c1csc(NC(=O)c2cccn2CCCCc2ccncc2)n1` [Compound A44, N-(4-(2-isopropoxypropan-2-yl)thiazol-2-yl)-1-(4-(pyridin-4-yl)butyl)-1H-pyrrole-2-carboxamide], the IC50 in assay [1] amounted to 0.963 µM; in assay [3] it was 1.48 µM; in assay [5], 13.3 µM; in assay [6] it was 0.837 µM. The EC50 (commonly the concentration that produces a half-maximal response) in assay [2] is more than 24.8 µM; in assay [4] it was more than 25 µM.

For the compound `CC(C)(C)c1csc(NC(=O)c2cccn2Cc2ccncc2)n1` [Compound A45, N-(4-(tert-butyl)thiazol-2-yl)-1-(pyridin-4-ylmethyl)-1H-pyrrole-2-carboxamide], the IC50 was 0.965 µM in assay [1], 1.65 µM in assay [3], 13.8 µM in assay [5] and 0.869 µM in assay [6]. Besides, the EC50 in assay [2] and in assay [4] was more than 25 µM each time.

Regarding `Cc1cccc2sc(NC(=O)c3cccn3Cc3ccncc3)nc12` [Compound A46], the IC50 in assay [1] was 1.07 µM; in assay [3] it was 2.98 µM; in assay [5], 17.8 µM; in assay [6], 0.89 µM. Also, the EC50 in assay [2] and in assay [4] was more than 25 µM each time.

Regarding `Cc1sc(NC(=O)c2cccn2Cc2ccncc2)nc1C1CC1` [Compound A47], the IC50 was determined as 1.09 µM in assay [1], 2.21 µM in assay [3], 25 µM in assay [5] and 3.11 µM in assay [6]. The EC50 in assay [2] and in assay [4] was more than 25 µM each time.

For the compound `Cc1cc(C(=O)Nc2nc(C(C)(C)OC(C)C)cs2)n(Cc2ccncc2)c1` [Compound A48, N-(4-(2-isopropoxypropan-2-yl)thiazol-2-yl)-4-methyl-1-(pyridin-4-ylmethyl)-1H-pyrrole-2-carboxamide], the IC50 was 1.19 µM in assay [1], 2.69 µM in assay [3], more than 25 µM in assay [5] and 2.22 µM in assay [6]. In addition, the EC50 in assay [2] and in assay [4] was more than 25 µM throughout.

For `CC(C)OC(C)(C)c1csc(NC(=O)c2cccn2[C@H](C)c2ccncc2)n1` [Compound A49, (R)-N-(4-(2-isopropoxypropan-2-yl)thiazol-2-yl)-1-(1-(pyridin-4-yl)ethyl)-1H-pyrrole-2-carboxamide], the IC50 in assay [1] worked out at 1.21 µM; in assay [3], 2.58 µM; in assay [5], 23.6 µM; in assay [6], 1.89 µM. For the same compound, the EC50 in assay [2] and in assay [4] was more than 25 µM each time.

In the case of `O=C(Nc1nc2ccccc2s1)c1cccn1Cc1ccncc1` [Compound A50, N-(benzo[d]thiazol-2-yl)-1-(pyridin-4-ylmethyl)-1H-pyrrole-2-carboxamide], the IC50 in assay [1] was 1.29 µM; in assay [3] it was 2.93 µM; in assay [5] it was more than 25 µM; in assay [6], 1.45 µM. Besides, the EC50 in assay [2] and in assay [4] was more than 25 µM throughout.

In the case of `O=C(Nc1nc(C2CC2)cs1)c1cccn1Cc1ccncc1` [Compound A51], the IC50 was 1.3 µM in assay [1], 3.42 µM in assay [3], more than 25 µM in assay [5] and 2.98 µM in assay [6]. Moreover, the EC50 in assay [2] and in assay [4] was more than 25 µM in each case.

As for `O=C(Nc1nc2c(s1)CCCC2)c1cccn1Cc1ccncc1` [Compound A52], the IC50 was 1.36 µM in assay [1], 2.83 µM in assay [3], more than 25 µM in assay [5] and 1.95 µM in assay [6]. Moreover, the EC50 in assay [2] and in assay [4] was more than 25 µM each time.

For the compound `CC(C)OC(C)(C)c1csc(NC(=O)c2cccn2Cc2ccc([N+](=O)[O-])cc2)n1` [Compound A53, N-(4-(2-isopropoxypropan-2-yl)thiazol-2-yl)-1-(4-nitrobenzyl)-1H-pyrrole-2-carboxamide], the IC50 was 1.38 µM in assay [1], 1.92 µM in assay [3], 19.1 µM in assay [5] and 1.2 µM in assay [6]. The EC50 in assay [2] was 17.3 µM; in assay [4], more than 25 µM.

In the case of `CC(C)(C)c1cnc(NC(=O)c2cccn2Cc2ccncc2)s1` [Compound A54], the IC50 in assay [1] was 1.38 µM; in assay [3] it was 4.05 µM; in assay [5], more than 25 µM; in assay [6], 4.45 µM. The EC50 in assay [2] and in assay [4] was more than 25 µM throughout.

Turning to `CC(C)c1cnc(NC(=O)c2cccn2Cc2ccncc2)s1` [Compound A55], the IC50 in assay [1] is 1.39 µM; in assay [3], 3.16 µM; in assay [5] it was more than 25 µM; in assay [6] it was 3.99 µM. Also, the EC50 in assay [2] and in assay [4] was more than 25 µM each time.

For the compound `O=C(Nc1nc2c(s1)CCC2)c1cccn1Cc1ccncc1` [Compound A56], the IC50 in assay [1] was 1.42 µM; in assay [3], 5.31 µM; in assay [5], more than 25 µM; in assay [6] it was 6.47 µM. The EC50 in assay [2] and in assay [4] was more than 25 µM throughout.

In the case of `CC(C)Cc1cnc(NC(=O)c2cccn2Cc2ccncc2)s1` [Compound A57], the IC50 in assay [1] is 1.42 µM; in assay [3], 4.2 µM; in assay [5] it was more than 25 µM; in assay [6], 4.93 µM. Further, the EC50 in assay [2] and in assay [4] was more than 25 µM each time.

With `Cc1nc(NC(=O)c2cccn2Cc2ccncc2)sc1C` [Compound A58, N-(4,5-dimethylthiazol-2-yl)-1-(pyridin-4-ylmethyl)-1H-pyrrole-2-carboxamide], the IC50 in assay [1] is 1.5 µM; in assay [3] it was 3.53 µM; in assay [5] it was more than 25 µM; in assay [6], 7.06 µM. Further, the EC50 in assay [2] and in assay [4] was more than 25 µM throughout.

Consider `CC(C)OCc1csc(NC(=O)c2cccn2Cc2ccncc2)n1` [Compound A59, N-(4-(isopropoxymethyl)thiazol-2-yl)-1-(pyridin-4-ylmethyl)-1H-pyrrole-2-carboxamide], for which the IC50 in assay [1] amounted to 1.51 µM; in assay [3], 11.9 µM; in assay [5], 16.6 µM; in assay [6], 3.62 µM. Moreover, the EC50 in assay [2] and in assay [4] was more than 25 µM in each case.

With `O=C(Nc1nc2ccsc2s1)c1cccn1Cc1ccncc1` [Compound A60], the IC50 was 1.57 µM in assay [1], 3.75 µM in assay [3], more than 25 µM in assay [5] and 2.69 µM in assay [6]. The EC50 in assay [2] and in assay [4] was more than 25 µM in each case.

`CC(C)OC(C)(C)c1csc(NC(=O)c2cccn2C(C)c2ccncc2)n1` (stereo not drawn) [Compound A61]: the IC50 in assay [1] is 1.67 µM; in assay [3], 3.41 µM; in assay [5], more than 25 µM; in assay [6] it was 2.38 µM. In addition, the EC50 in assay [2] and in assay [4] was more than 25 µM each time.

On to `CCCc1cnc(NC(=O)c2cccn2Cc2ccncc2)s1` [Compound A62], for which the IC50 in assay [1] was 1.69 µM; in assay [3], 4.3 µM; in assay [5], more than 25 µM; in assay [6], 5.07 µM. Moreover, the EC50 in assay [2] and in assay [4] was more than 25 µM in each case.

Turning to `Cc1csc(NC(=O)c2cccn2Cc2ccncc2)n1` [Compound A63, N-(4-methylthiazol-2-yl)-1-(pyridin-4-ylmethyl)-1H-pyrrole-2-carboxamide], the IC50 in assay [1] was 1.72 µM; in assay [3] it was 10.6 µM; in assay [5], more than 25 µM; in assay [6], more than 25 µM. Also, the concentration giving a half-maximal response (EC50) in assay [2] and in assay [4] was more than 25 µM each time.

Regarding `CC(C)OC(C)(C)c1csc(NC(=O)c2cccn2CCCc2ccccc2)n1` [Compound A64, N-(4-(2-isopropoxypropan-2-yl)thiazol-2-yl)-1-(3-phenylpropyl)-1H-pyrrole-2-carboxamide], the IC50 in assay [1] is 1.73 µM; in assay [3] it was 3.48 µM; in assay [5], more than 25 µM; in assay [6], 2.72 µM. Also, the EC50 is 23.2 µM in assay [2] and more than 25 µM in assay [4].

As for `CCc1cnc(NC(=O)c2cccn2Cc2ccncc2)s1` [Compound A65], the IC50 in assay [1] was 1.79 µM; in assay [3], 4.13 µM; in assay [5] it was more than 25 µM; in assay [6] it was 11.2 µM. The EC50 in assay [2] and in assay [4] was more than 25 µM each time.
